Assay results published in patent US20110082130A1 (LIGAND PHARMACEUTICALS, INC., priority 2006, published 2011).

target: T1, chimeric human H3 receptor (Homo sapiens, UniProt Q9Y5N1); assay: Chimeric human H3 receptor GTP binding assay (agonist-stimulated GTP-gamma35S binding, Example 7); type: biochemical; details: Table I; P2 membranes of Sf9 cells, 1 μM histamine as agonist, Ki from IC50 by Cheng-Prusoff
T1 construct: made in house; host or cells: Sf9 insect cells (baculovirus); P2 membrane preparation
Procedure, shortened: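 Sf9 membranes co-expressing chimeric human H3 receptor and heterotrimeric G-protein, 35 μg/tube, in pH 7.4 Tris buffer with 10 μM GDP. Test compounds (10^−10–10^−6 M) competed against 1 μM histamine, […] GTP-gamma35S, 60 min at room temperature. Filter-bound radioactivity counted; IC50 converted to Ki by Cheng-Prusoff. Agonism/inverse agonism tested without histamine (EC50).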

T1 sequence (Q9Y5N1 with tags, fused parts or gaps): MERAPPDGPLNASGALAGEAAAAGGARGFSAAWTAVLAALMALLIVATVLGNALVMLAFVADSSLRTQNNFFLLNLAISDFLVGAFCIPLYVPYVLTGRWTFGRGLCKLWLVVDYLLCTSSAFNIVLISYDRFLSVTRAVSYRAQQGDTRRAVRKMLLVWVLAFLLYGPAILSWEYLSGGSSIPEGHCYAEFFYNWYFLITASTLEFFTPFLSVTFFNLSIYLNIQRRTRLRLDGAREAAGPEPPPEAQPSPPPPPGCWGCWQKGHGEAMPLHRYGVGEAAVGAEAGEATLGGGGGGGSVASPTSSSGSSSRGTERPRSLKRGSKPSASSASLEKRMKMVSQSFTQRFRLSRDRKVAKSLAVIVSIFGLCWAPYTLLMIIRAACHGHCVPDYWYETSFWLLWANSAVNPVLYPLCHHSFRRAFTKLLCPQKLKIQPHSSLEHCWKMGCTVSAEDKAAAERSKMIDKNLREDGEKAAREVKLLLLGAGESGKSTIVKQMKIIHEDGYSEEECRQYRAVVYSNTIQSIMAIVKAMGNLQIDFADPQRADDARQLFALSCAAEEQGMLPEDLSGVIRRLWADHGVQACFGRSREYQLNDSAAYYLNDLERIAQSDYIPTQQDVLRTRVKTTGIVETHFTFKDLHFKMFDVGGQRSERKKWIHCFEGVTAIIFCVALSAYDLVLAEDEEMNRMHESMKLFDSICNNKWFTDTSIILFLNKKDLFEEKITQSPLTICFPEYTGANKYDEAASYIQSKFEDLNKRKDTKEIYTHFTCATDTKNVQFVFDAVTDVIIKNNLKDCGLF

SMILES | Ki [nM]
O=C(CN1CCc2ccccc2C1)N1CCN(C2CCCC2)CC1 [Compound 46, 2-[2-(4-cyclopentylpiperazin-1-yl)-2-oxoethyl]-1,2,3,4-tetrahydroisoquinoline] | < 1000
COc1ncnc2c1CCN(CC(=O)N1CCN(C3CCC3)CC1)CC2 [Compound 78, 7-[2-(4-cyclobutylpiperazin-1-yl)-2-oxoethyl]-4-methoxy-6,7,8,9-tetrahydro-5H-tetrahydro-5H-pyrimido[4,5-d]azepine] | < 1000

same assay, conditions: Table II "Ki", symbol *; assay of Example 7

SMILES | Ki [nM]
O=C(CN1CCc2cc(-c3ccc(Cl)cn3)ccc2C1)N1CCN(C2CCC2)CC1 [Compound 631, 6-(5-chloropyridin-2-yl)-2-[2-(4-cyclobutylpiperazin-1-yl)-2-oxoethyl]-1,2,3,4-tetrahydroisoquinoline] | < 1000
CC(C)c1ccc(-c2ccc3c(c2)CCN(CC(=O)N2CCN(C4CCC4)CC2)C3)cn1 [Compound 649, 2-[2-(4-cyclobutylpiperazin-1-yl)-2-oxoethyl]-6-(6-isopropylpyridin-3-yl)-1,2,3,4-tetrahydroisoquinoline] | < 1000
CN(C)c1ccc(-c2ccc3c(c2)CCN(CC(=O)N2CCN(C4CCC4)CC2)C3)cc1 [Compound 532, 4-{2-[2-(4-cyclobutylpiperazin-1-yl)-2-oxoethyl]-1,2,3,4-tetrahydroisoquinolin-6-yl}-N,N-dimethylaniline] | < 1000
CC1CCCCN1c1ccc2c(n1)CCN(CC(=O)N1CCN(C3CCC3)CC1)C2 (centres unmarked) [Compound 676, 6-[2-(4-cyclobutylpiperazin-1-yl)-2-oxoethyl]-2-(2-methylpiperidin-1-yl)-5,6,7,8-tetrahydro-1,6-naphthyridine] | < 1000
COCCC1CCCN(c2ccc3c(n2)CCN(CC(=O)N2CCN(C4CCC4)CC2)C3)C1 (centres unmarked) [Compound 674, 6-[2-(4-cyclobutylpiperazin-1-yl)-2-oxoethyl]-2-[3-(2-methoxyethyl)piperidin-1-yl]-5,6,7,8-tetrahydro-1,6-naphthyridine] | < 1000
O=C(CN1CCc2cc(-c3nccc(C(F)(F)F)n3)ccc2C1)N1CCN(C2CCC2)CC1 [Compound 636, 2-[2-(4-cyclobutylpiperazin-1-yl)-2-oxoethyl]-6-[4-(trifluoromethyl)pyrimidin-2-yl]-1,2,3,4-tetrahydroisoquinoline] | < 1000

same assay, conditions: Table II; "*" = Ki in assay of Example 7 less than 1 micromolar

SMILES | Ki [nM]
CC(=O)c1ccc2c(n1)CCN(CC(=O)N1CCN(C3CCC3)CC1)C2 [Compound 173, 1-{6-[2-(4-cyclobutylpiperazin-1-yl)-2-oxoethyl]-5,6,7,8-tetrahydro-1,6-naphthyridin-2-yl}ethanone] | < 1000
CC(=O)c1ccc(-n2ncc3c2CCN(CC(=O)N2CCN(C4CCC4)CC2)C3)nn1 [Compound 216, 1-(6-{5-[2-(4-cyclobutylpiperazin-1-yl)-2-oxoethyl]-4,5,6,7-tetrahydro-1H-pyrazolo[4,3-c]pyridin-1-yl}pyridazin-3-yl)ethanone] | < 1000
CC(=O)c1ccc(-n2cc3c(n2)CCN(CC(=O)N2CCN(C4CCC4)CC2)C3)nn1 [Compound 202, 1-(6-{5-[2-(4-cyclobutylpiperazin-1-yl)-2-oxoethyl]-4,5,6,7-tetrahydro-2H-pyrazolo[4,3-c]pyridin-2-yl}pyridazin-3-yl)ethanone] | < 1000
Cc1c2c(nn1-c1ccc(C#N)cn1)CCN(CC(=O)N1CCN(C3CCC3)CC1)C2 [Compound 274, 6-{5-[2-(4-cyclobutylpiperazin-1-yl)-2-oxoethyl]-3-methyl-4,5,6,7-tetrahydro-2H-pyrazolo[4,3-c]pyridin-2-yl}nicotinonitrile] | < 1000
CC(=O)c1nc2c(s1)CN(CC(=O)N1CCN(C3CCC3)CC1)CC2 [Compound 103, 1-{5-[2-(4-cyclobutylpiperazin-1-yl)-2-oxoethyl]-4,5,6,7-tetrahydro[1,3]thiazolo [5,4-c]pyridin-2-yl}ethanone] | < 1000
O=C(CN1CCc2c(cnn2-c2cccc(F)c2)C1)N1CCN(C2CCC2)CC1 [Compound 235, 5-[2-(4-cyclobutylpiperazin-1-yl)-2-oxoethyl]-1-(3-fluorophenyl)-4,5,6,7-tetrahydro-1H-pyrazolo[4,3-c]pyridine] | < 1000
CC(=O)c1ccc(-c2nc3c(s2)CN(CC(=O)N2CCN(C4CCC4)CC2)CC3)cc1 [Compound 98, 1-(4-{5-[2-(4-cyclobutylpiperazin-1-yl)-2-oxoethyl]-4,5,6,7-tetrahydro[1,3]thiazolo [5,4-c]pyridin-2-yl}phenyl)ethanone] | < 1000
COc1ccc(-c2ccc3c(c2)CCN(CC(=O)N2CCN(C4CCC4)CC2)C3)cn1 [Compound 95, 2-[2-(4-cyclobutylpiperazin-1-yl)-2-oxoethyl]-6-(6-methoxypyridin-3-yl)-1,2,3,4-tetrahydroisoquinoline] | < 1000
O=C(CN1CCc2nn(-c3cncc(N4CCCC4)n3)cc2C1)N1CCN(C2CCC2)CC1 [Compound 268, 5-[2-(4-cyclobutylpiperazin-1-yl)-2-oxoethyl]-2-(6-pyrrolidin-1-ylpyrazin-2-yl)-4,5,6,7-tetrahydro-2H-pyrazolo[4,3-c]pyridine] | < 1000
CCn1cc(-c2ccc3c(c2)CCN(CC(=O)N2CCN(C4CCC4)CC2)C3)ccc1=O [Compound 280, 5-{2-[2-(4-cyclobutylpiperazin-1-yl)-2-oxoethyl]-1,2,3,4-tetrahydroisoquinolin-6-yl}-1-ethylpyridin-2(1H)-one] | < 1000
CC(=O)c1ccc2c(c1)CCN(CC(=O)N1CCN(C3CCC3)CC1)CC2 [Compound 101, 1-{3-[2-(4-cyclobutylpiperazin-1-yl)-2-oxoethyl]-2,3,4,5-tetrahydro-1H-3-benzazepin-7-yl}ethanone] | < 1000
O=C(CN1CCc2c(cnn2-c2ccc(F)cc2)C1)N1CCN(C2CCC2)CC1 [Compound 234, 5-[2-(4-cyclobutylpiperazin-1-yl)-2-oxoethyl]-1-(4-fluorophenyl)-4,5,6,7-tetrahydro-1H-pyrazolo[4,3-c]pyridine] | < 1000
N#Cc1ccc(-n2ncc3c2CCN(CC(=O)N2CCN(C4CCC4)CC2)C3)nn1 [Compound 215, 6-{5-[2-(4-cyclobutylpiperazin-1-yl)-2-oxoethyl]-4,5,6,7-tetrahydro-1H-pyrazolo[4,3-c]pyridin-1-yl}pyridazine-3-carbonitrile] | < 1000
O=C(CN1CCc2nc(N3CCC(F)(F)C3)ccc2C1)N1CCN(C2CCC2)CC1 [Compound 242, 6-[2-(4-cyclobutylpiperazin-1-yl)-2-oxoethyl]-2-(3,3-difluoropyrrolidin-1-yl)-5,6,7,8-tetrahydro-1,6-naphthyridine] | < 1000
O=C(CN1CCc2cc(-n3ncccc3=O)ccc2C1)N1CCN(C2CCC2)CC1 [Compound 193, 2-{2-[2-(4-cyclobutylpiperazin-1-yl)-2-oxoethyl]-1,2,3,4-tetrahydroisoquinolin-6-yl}pyridazin-3(2H)-one] | < 1000

same assay, conditions: Table II; assay of Example 7

SMILES | Ki [nM]
O=C(CN1CCc2nn(C3CCCC3)cc2C1)N1CCN(C2CCC2)CC1 [Compound 684, 5-[2-(4-cyclobutylpiperazin-1-yl)-2-oxoethyl]-2-cyclopentyl-4,5,6,7-tetrahydro-2H-pyrazolo[4,3-c] pyridine] | < 1000
O=C(CN1CCc2nn(-c3ccc4nncn4n3)cc2C1)N1CCN(C2CCC2)CC1 [Compound 688, 6-{5-[2-(4-cyclobutylpiperazin-1-yl)-2-oxoethyl]-4,5,6,7-tetrahydro-2H-pyrazolo[4,3-c]pyridin-2-yl}[1,2,4]triazolo[4,3-b]pyridazine] | < 1000

same assay, conditions: assay of Example 7; "*" in Ki of Table II

SMILES | Ki [nM]
COc1cccc(-c2nc3c(s2)CN(CC(=O)N2CCN(C4CCC4)CC2)CC3)c1 [Compound 315, 5-[2-(4-cyclobutylpiperazin-1-yl)-2-oxoethyl]-2-(3-methoxyphenyl)-4,5,6,7-tetrahydro[1,3]thiazolo [5,4-c]pyridine] | < 1000
Cc1ccc(F)c(-c2nc3c(s2)CN(CC(=O)N2CCN(C4CCC4)CC2)CC3)c1Cl [Compound 365, 2-(2-chloro-6-fluoro-3-methylphenyl)-5-[2-(4-cyclobutylpiperazin-1-yl)-2-oxoethyl]-4,5,6,7-tetrahydro[1,3]thiazolo [5,4-c]pyridine] | < 1000
CCOc1cccc(-c2nc3c(s2)CN(CC(=O)N2CCN(C4CCC4)CC2)CC3)c1 [Compound 317, 5-[2-(4-cyclobutylpiperazin-1-yl)-2-oxoethyl]-2-(3-ethoxyphenyl)-4,5,6,7-tetrahydro[1,3]thiazolo [5,4-c]pyridine] | < 1000
O=C(CN1CCc2cc(-c3ccc(=O)n(CC(F)(F)F)c3)ccc2C1)N1CCN(C2CCC2)CC1 [Compound 283, 5-{2-[2-(4-cyclobutylpiperazin-1-yl)-2-oxoethyl]-1,2,3,4-tetrahydroisoquinolin-6-yl}-1-(2,2,2-trifluoroethyl)pyridin-2(1H)-one] | < 1000
O=C(CN1CCc2nc(-c3cc(C(F)(F)F)cc(C(F)(F)F)c3)sc2C1)N1CCN(C2CCC2)CC1 [Compound 371, 2-[3,5-bis(trifluoromethyl)phenyl]-5-[2-(4-cyclobutylpiperazin-1-yl)-2-oxoethyl]-4,5,6,7-tetrahydro[1,3]thiazolo [5,4-c]pyridine] | < 1000
CS(=O)(=O)c1ccc(-c2ccc3c(c2)CCN(CC(=O)N2CCN(C4CCC4)CC2)C3)cc1 [Compound 389, 2-[2-(4-cyclobutylpiperazin-1-yl)-2-oxoethyl]-6-[4-(methylsulfonyl)phenyl]-1,2,3,4-tetrahydroisoquinoline] | < 1000
Cc1ccc(-c2nc3c(s2)CN(CC(=O)N2CCN(C4CCC4)CC2)CC3)c(F)c1 [Compound 301, 5-[2-(4-cyclobutylpiperazin-1-yl)-2-oxoethyl]-2-(2-fluoro-4-methylphenyl)-4,5,6,7-tetrahydro[1,3]thiazolo [5,4-c]pyridine] | < 1000
